Several values for one entry are separate records, joined by “and”; a condition that tells them apart may be missing. Identical values can stand only once.
How the values were obtained:
PolθΔL = target: T1, PolθΔL (Homo sapiens, UniProt O75417, C1895G/DEL1861-1870/DEL1873-1894/DEL1918-1929/DEL2146-2157/DEL2161-2173/DEL2261-2287/DEL2291-2305/DEL2513-2514/DEL2518-2524/F2289G/F2526G/L1930G/L2158G/L2516G/M2525G/P1932S/P1933G/R2175G/R2306G/S1934G/V1931G); experiment: PolθΔL primer extension; assay type: biochemical
T1 construct: The gene encoding Polθ-pol (residues 1819–2590) was cloned into a pSUMOstar vector; 6xHis (N, cleaved yes); SUMO (N); made in house; host or cells: E. coli BL21(DE3)
T1 sequence (O75417 with tags, fused parts or gaps with the stated changes): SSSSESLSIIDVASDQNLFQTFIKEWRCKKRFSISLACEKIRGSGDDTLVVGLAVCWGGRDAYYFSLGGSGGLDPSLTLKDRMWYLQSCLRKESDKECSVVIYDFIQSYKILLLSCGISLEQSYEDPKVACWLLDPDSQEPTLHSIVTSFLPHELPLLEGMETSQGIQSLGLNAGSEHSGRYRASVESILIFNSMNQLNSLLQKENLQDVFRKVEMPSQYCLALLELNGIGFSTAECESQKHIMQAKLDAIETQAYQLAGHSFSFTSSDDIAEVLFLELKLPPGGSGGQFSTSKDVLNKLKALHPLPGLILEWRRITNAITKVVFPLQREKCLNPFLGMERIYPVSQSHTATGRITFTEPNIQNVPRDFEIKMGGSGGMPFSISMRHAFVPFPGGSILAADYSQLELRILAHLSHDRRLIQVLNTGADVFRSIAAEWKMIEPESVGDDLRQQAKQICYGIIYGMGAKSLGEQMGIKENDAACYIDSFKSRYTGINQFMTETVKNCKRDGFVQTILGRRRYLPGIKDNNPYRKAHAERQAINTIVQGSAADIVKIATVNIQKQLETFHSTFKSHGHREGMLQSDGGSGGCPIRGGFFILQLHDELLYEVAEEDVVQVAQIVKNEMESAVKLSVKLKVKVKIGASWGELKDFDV

[1] = Metabolic stability in liver microsomes; assay type: in vitro ADME; conditions: read-out: t1/2 liver microsomes
Polθ-pol:DNA/DNA complex = target: T2, Polθ-pol:DNA/DNA complex (Homo sapiens, UniProt O75417); experiment: KpnI endonuclease protection assay; assay type: biochemical; conditions: for trapping of post-catalytic complexes, different sequence context / i (%), normalized to 100%, ave(%) / i (%), replicates / i+1 (%) normalized to 100%, ave(%) / i+1 (%), replicates: KpnI; for i (%), normalized to 100%, ave(%) / i (%), replicates: 14 nt i; for i+1 (%) normalized to 100%, ave(%) / i+1 (%), replicates: 15 nt i+1
T2 construct: purified recombinant human Polθ-pol (comprising amino acid residues 1792–2590); made in house
T2 sequence (O75417 1792-2590): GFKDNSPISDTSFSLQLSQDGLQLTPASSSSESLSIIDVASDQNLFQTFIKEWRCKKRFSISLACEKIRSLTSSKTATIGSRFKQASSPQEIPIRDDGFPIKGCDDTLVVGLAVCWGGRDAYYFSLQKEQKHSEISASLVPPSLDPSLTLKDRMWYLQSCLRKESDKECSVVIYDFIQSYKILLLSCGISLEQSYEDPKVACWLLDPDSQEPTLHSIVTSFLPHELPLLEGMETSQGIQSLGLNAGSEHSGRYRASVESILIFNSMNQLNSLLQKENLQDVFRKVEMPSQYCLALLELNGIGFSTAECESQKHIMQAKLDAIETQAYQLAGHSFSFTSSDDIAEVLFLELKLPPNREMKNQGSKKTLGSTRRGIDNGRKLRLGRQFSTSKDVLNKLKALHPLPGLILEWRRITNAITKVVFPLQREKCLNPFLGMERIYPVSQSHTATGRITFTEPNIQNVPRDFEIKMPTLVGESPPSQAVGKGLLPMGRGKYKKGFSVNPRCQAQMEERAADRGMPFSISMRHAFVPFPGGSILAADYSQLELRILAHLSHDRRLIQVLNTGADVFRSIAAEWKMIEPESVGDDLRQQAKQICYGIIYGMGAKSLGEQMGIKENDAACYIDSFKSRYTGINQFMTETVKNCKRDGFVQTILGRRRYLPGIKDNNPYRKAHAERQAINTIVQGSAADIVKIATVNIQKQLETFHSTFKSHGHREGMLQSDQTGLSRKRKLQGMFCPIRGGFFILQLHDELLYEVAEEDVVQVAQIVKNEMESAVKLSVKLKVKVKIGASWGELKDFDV
Procedure: EcoRI and KpnI endonucleases assay: 25 nM 5’-^32P radiolabeled primer-template DNA Sc15-EcoRI (5’-^32P LM3-EcoRI/LM4-EcoRI) or Sc19-KpnI (5’-^32P LM11-Kpn/LM12-Kpn) in reaction buffer (25 mM Tris-HCl pH 7.5, 10 mM MgCl2, 10% glycerol, 0.1 mg/mL BSA, 0,01% igepal, 1 mM DTT) were incubated in the presence or in the absence of 50 nM Polθ-pol, 100 μM ddCTP, and 10 μM inhibitors, as indicated, for 5 min at room temperature. Next, 0.08 U/μL EcoRI or KpnI together with 500 nM “trapping” DNA Sc14 (RP559/RP702) were added and incubated for further 0–40 min at 30 °C as indicated. 10 nM PolθΔcen and FL-Polθ and 25 nM Sc15-EcoRI and Sc19-Kpn were probed with 0.04 U/μL EcoRI or KpnI (both from New England Biolabs) using the same conditions. Reactions were stopped by addition of formamide loading buffer with 50 mM EDTA, resolved in denaturing 20% urea PAAG and analyzed using Typhoon PhosphorImager (GE Amersham). Quantification was done in ImageQuant TL software. All quantified experiments were performed in triplicates and plotted as mean with ± s.d using GraphPad Prism 9 software.

Polα = experiment: Primer extension by recombinant Pols (selectivity); assay type: biochemical
DLD1 BRCA2 -/- cells = experiment: Western blot γ-H2AX phosphorylation and PARP cleavage; assay type: cell-based; conditions: versus parental
Procedure: Cells were harvested using—cell scraper and washed in phosphate-buffered saline (PBS), then lysed in 1 x RIPA Lysis and Extraction Buffer (Thermo Scientific #89901) containing Halt™ Protease and Phosphatase Inhibitor Cocktail (Thermo Scientific #1861281). Protein concentration was measured using Pierce™ BCA Protein Assay Kit (Thermo Scientific #23225). The proteins were separated by electrophoresis using 4–20% Mini-PROTEAN® TGX™ Precast Protein Gels (Bio-Rad #4561096) and transferred to Immuno Blot PVDF Membrane (Bio-Rad #1620177). Membranes were blocked using 5%-milk-TBST (or 5%-BSA-TBST for phospho-proteins) for 1 h at room temperature and washed with TBST prior to antibody incubation. Primary antibodies were incubated overnight at 4 °C in 1%-milk-TBST (or 2%-BSA-TBST for phospho-proteins). γ-H2AX (p Ser139) was detected using antibody (NOVUS #NB100-384) diluted 1:2000. Cleaved PARP was detected using antibody (Cell Signaling #9546) diluted 1:2000. Gapdh was detected using Gapdh (14C10) rabbit monoclonal antibody (Cell Signaling Technology #2118) diluted 1:4000. Membranes were washed with TBST prior to secondary antibody incubation for 1 h at room temperature using respective Goat anti-Rabbit IgG (H + L) HRP (Invitrogen #31466) or Goat anti-Mouse IgG (H + L) HRP (Invitrogen #31430)–tagged Secondary Antibody diluted 1:5000 in 2%-milk-TBST. […]

CN(C(=O)Oc1ccc(C(F)(F)F)cc1C(F)(F)F)c1ccc(F)cc1 [MC160385]
inhibition of PolθΔL primer extension (PolθΔL): inhibits
half-life [1]: 6.2 min

CN1CCN(c2cc(C(F)(F)F)cc(C(F)(F)F)c2OC(=O)N(C)c2ccc(F)cc2)C1=O [RTx-152]
KpnI cleavage %, ave (Polθ-pol:DNA/DNA complex; Kpn+pol+ddC+RTx152, 2.5min): 0.358%
KpnI cleavage %, replicates (Polθ-pol:DNA/DNA complex; Kpn+pol+ddC+RTx152, 2.5min): 0.0% and 0.447% and 0.6%
KpnI cleavage %, ave (Polθ-pol:DNA/DNA complex; Kpn+pol+ddC+RTx152, 5min): 0.665%
KpnI cleavage %, replicates (Polθ-pol:DNA/DNA complex; Kpn+pol+ddC+RTx152, 5min): 0.321% and 0.8% and 0.9%
KpnI cleavage %, ave (Polθ-pol:DNA/DNA complex; Kpn+pol+ddC+RTx152, 10min): 2.1%
KpnI cleavage %, replicates (Polθ-pol:DNA/DNA complex; Kpn+pol+ddC+RTx152, 10min): 1.8% and 2.3% and 2.0%
trapping of post-catalytic complexes, different sequence context (Polθ-pol:DNA/DNA complex): identical trapping
i (%), normalized to 100%, ave(%) (Polθ-pol:DNA/DNA complex; pol+ddC+152, 2.5 min): 100.0%
i (%), replicates (Polθ-pol:DNA/DNA complex; pol+ddC+152, 2.5 min): 35.4% and 37.2% and 33.9%
i+1 (%) normalized to 100%, ave(%) (Polθ-pol:DNA/DNA complex; pol+ddC+152, 2.5 min): 100.0%
i+1 (%), replicates (Polθ-pol:DNA/DNA complex; pol+ddC+152, 2.5 min): 53.1% and 50.1% and 54.1%
i (%), normalized to 100%, ave(%) (Polθ-pol:DNA/DNA complex; pol+ddC+152, 5 min): 85.8%
i (%), replicates (Polθ-pol:DNA/DNA complex; pol+ddC+152, 5 min): 30.7% and 32.1% and 28.6%
i+1 (%) normalized to 100%, ave(%) (Polθ-pol:DNA/DNA complex; pol+ddC+152, 5 min): 107.9%
i+1 (%), replicates (Polθ-pol:DNA/DNA complex; pol+ddC+152, 5 min): 57.1% and 52.5% and 60.1%
i (%), normalized to 100%, ave(%) (Polθ-pol:DNA/DNA complex; pol+ddC+152, 10 min): 63.7%
i (%), replicates (Polθ-pol:DNA/DNA complex; pol+ddC+152, 10 min): 21.4% and 24.5% and 21.9%
i+1 (%) normalized to 100%, ave(%) (Polθ-pol:DNA/DNA complex; pol+ddC+152, 10 min): 120.8%
i+1 (%), replicates (Polθ-pol:DNA/DNA complex; pol+ddC+152, 10 min): 62.6% and 62.1% and 65.2%

CN(C(=O)Oc1c(N2CCN(CCO)C2=O)cc(C(F)(F)F)cc1C(F)(F)F)c1ccc(F)cc1 [RTx-161]
% Full Extension (Polα; Pol Alpha): 84.67%
% Inhibition Compared to Control (Polα; Pol Alpha): -1.20%
% Relative Maximum Extension (Polα; Pol Alpha): 101.20%
inhibition of primer extension (Polα; selectivity panel, Pol named in Supplementary Fig. 1h): no inhibition
PARP cleavage (DLD1 BRCA2 -/- cells): selectively induced PARP cleavage
KpnI cleavage %, ave (Polθ-pol:DNA/DNA complex; Kpn+pol+ddC+RTx161, 2.5min): 0.667%
KpnI cleavage %, replicates (Polθ-pol:DNA/DNA complex; Kpn+pol+ddC+RTx161, 2.5min): 1.0% (2×) and 0.0%
KpnI cleavage %, ave (Polθ-pol:DNA/DNA complex; Kpn+pol+ddC+RTx161, 5min): 0.667%
KpnI cleavage %, replicates (Polθ-pol:DNA/DNA complex; Kpn+pol+ddC+RTx161, 5min): 1.0% (2×) and 0.0%
KpnI cleavage %, ave (Polθ-pol:DNA/DNA complex; Kpn+pol+ddC+RTx161, 10min): 1.7%
KpnI cleavage %, replicates (Polθ-pol:DNA/DNA complex; Kpn+pol+ddC+RTx161, 10min): 2.0% (2×) and 1.0%
trapping of post-catalytic complexes, different sequence context (Polθ-pol:DNA/DNA complex): identical trapping
i (%), normalized to 100%, ave(%) (Polθ-pol:DNA/DNA complex; pol+ddC+161, 2.5 min): 100.0%
i (%), replicates (Polθ-pol:DNA/DNA complex; pol+ddC+161, 2.5 min): 37.5% and 36.0% and 24.6%
i+1 (%) normalized to 100%, ave(%) (Polθ-pol:DNA/DNA complex; pol+ddC+161, 2.5 min): 100.0%
i+1 (%), replicates (Polθ-pol:DNA/DNA complex; pol+ddC+161, 2.5 min): 53.1% and 51.8% and 59.1%
i (%), normalized to 100%, ave(%) (Polθ-pol:DNA/DNA complex; pol+ddC+161, 5 min): 87.7%
i (%), replicates (Polθ-pol:DNA/DNA complex; pol+ddC+161, 5 min): 33.9% and 31.6% and 20.7%
i+1 (%) normalized to 100%, ave(%) (Polθ-pol:DNA/DNA complex; pol+ddC+161, 5 min): 105.6%
i+1 (%), replicates (Polθ-pol:DNA/DNA complex; pol+ddC+161, 5 min): 54.8% and 55.9% and 62.4%
i (%), normalized to 100%, ave(%) (Polθ-pol:DNA/DNA complex; pol+ddC+161, 10 min): 67.8%
i (%), replicates (Polθ-pol:DNA/DNA complex; pol+ddC+161, 10 min): 26.7% and 24.4% and 15.5%
i+1 (%) normalized to 100%, ave(%) (Polθ-pol:DNA/DNA complex; pol+ddC+161, 10 min): 114.7%
i+1 (%), replicates (Polθ-pol:DNA/DNA complex; pol+ddC+161, 10 min): 61.3% and 62.1% and 64.7%

Source: paper PMC10997755, “Discovery of a small-molecule inhibitor that traps Polθ on DNA and synergizes with PARP inhibitors” (Nature Communications, 2024)
